Structures can show the parent of a compound that is named as a salt.

One may read the melting point as the temperature of the solid-liquid transition. Take `COc1cc(-c2nnc(CSCCOc3ccccc3)o2)ccc1OCCCN(C)C.O=C(O)/C=C\C(=O)O` [Example 284, (3-{2-methoxy-4-[5-(2-phenoxy-ethylsulfanylmethyl)-[1,3,4]oxadiazol-2-yl]-phenoxy}-propyl)-dimethyl-amine; maleic acid salt]: the melting point lay in the range of 114 to 116 °C.

`c1ccc(OCCSCc2nnc(-c3ccc(OCCN4CCCCCC4)cc3)o2)cc1` [Example 86, 1-(2-{4-[5-(2-phenoxy-ethylsulfanylmethyl)-[1,3,4]oxadiazol-2-yl]-phenoxy}-ethyl)-azepane]: the melting point amounted to 40 °C.

`CN1CCN(c2ccc(-c3nnc(CSCCOc4ccccc4)o3)cn2)CC1.O=C(O)/C=C\C(=O)O` [Example 293, 1-methyl-4-{5-[5-(2-phenoxy-ethylsulfanylmethyl)-[1,3,4]oxadiazol-2-yl]-pyridin-2-yl}-piperazine; maleic acid salt] showed a melting point of 146 to 147 °C.

In turn, `CN(C)CCCOc1ccc(-c2nnc(-c3ccc(Oc4ccccc4)cc3)o2)cc1` [Example 248, Dimethyl-(3-{4-[5-(4-phenoxy-phenyl)-[1,3,4]oxadiazol-2-yl]-phenoxy}-propyl)-amine] registered a melting point of 95 °C.

`O=C(NCCN1CCCC1)Nc1ccc(-c2nnc(CSCCOc3ccccc3)o2)cc1.O=C(O)C(=O)O` [Example 106, 1-{4-[5-(2-phenoxy-ethylsulfanylmethyl)-[1,3,4]oxadiazol-2-yl]-phenyl}-3-(2-pyrrolidin-1-yl-ethyl)-urea oxalate]: the melting point was 111 to 115 °C.

`c1ccc(OCCSCc2nnc(-c3ccc(OCCCCN4CCCC4)cc3)o2)cc1` [Example 80, 2-(2-phenoxy-ethylsulfanylmethyl)-5-[4-(4-pyrrolidin-1-yl-butoxy)-phenyl]-[1,3,4]oxadiazole] registered a melting point of 45 °C.

The molecule `c1ccc(OCCSCc2nnc(-c3ccc(OCCN4CCOCC4)cc3)o2)cc1` [Example 74, 4-(2-{4-[5-(2-phenoxy-ethylsulfanylmethyl)-[1,3,4]oxadiazol-2-yl]-phenoxy}-ethyl)-morpholine] showed a melting point of 70 to 72 °C.

Turning to `CN(C)CCCOc1ccc(-c2nnc(CSCCOc3ccccc3)o2)cc1` [Example 67, dimethyl-(3-{4-[5-(2-phenoxy-ethylsulfanylmethyl)-[1,3,4]oxadiazol-2-yl]-phenoxy}-propyl)-amine], the melting point came out at 70 °C.

`CN(C)CCCNC(=S)Nc1ccc(-c2nnc(CSCCOc3ccccc3)o2)cc1` [Example 118, 1-(3-dimethylamino-propyl)-3-{4-[5-(2-phenoxy-ethylsulfanylmethyl)-[1,3,4]oxadiazol-2-yl]-phenyl}-thiourea] gave a melting point of 136 to 139 °C.

Molecule `CN(C)CCCOc1ccc(-c2nnc(CSCCCOc3ccccc3)o2)cc1.O=C(O)C(=O)O` [Example 49, dimethyl-(3-{4-[5-(3-phenoxypropylsulfanylmethyl)-[1,3,4]oxadiazol-2-yl]-phenoxy}-propyl)-amine, oxalic acid salt] yielded a melting point of 131 to 133 °C.

Take `CN1CCC(Oc2ccc(-c3nnc(CSCCOc4ccccc4)o3)cc2)CC1.O=C(O)/C=C\C(=O)O` [Example 291, 1-methyl-4-{4-[5-(2-phenoxy-ethylsulfanylmethyl)-[1,3,4]oxadiazol-2-yl]-phenoxy}-piperidine; maleic acid salt]: the melting point lay within 149 to 150 °C.

In turn, `O=C(NCCN1CCCCC1)Nc1ccc(-c2cnc(COCc3cc4ccccc4o3)o2)cc1` [Example 256, 1-{4-[2-(benzofuran-2-ylmethoxymethyl)-oxazol-5-yl]-phenyl}-3-(2-piperidin-1-yl-ethyl)-urea] gave a melting point of 102 to 104 °C.

As for `c1csc(SCc2nnc(-c3ccc(OCCCN4CCCCC4)cc3)o2)n1` (as salt: hydrochloride) [Example 226, 1-(3-{4-[5-(thiazol-2-ylsulfanylmethyl)-[1,3,4]oxadiazol-2-yl]phenoxy}propyl)piperdine], the melting point was in the range of 174 to 176 °C.

Values taken from patent US7229987B2, “Multicyclic compounds for use as melanin concentrating hormone antagonists in the treatment of obesity and diabetes” (Eli Lilly and Company, priority 2002, dated 2007).
